Results reported in patent US10030016B2 (Sunesis Pharmaceuticals, Inc., priority 2009, dated 2018).
Structures can show the parent of a compound that is named as a salt. Where two headings read alike, the source gives them in different places.

Key:
PDK1 = PDK1 (Homo sapiens (Human), UniProt O15530); assay: PDK1 kinase assay (coupled PDK1/AKT/FAM-crosstide assay, IMAP fluorescence polarization); assay type: biochemical
In short: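 GST-tagged PDK1 (aa 51-359, 0.75 nM) was coupled to unphosphorylated GST-AKT2 140-467-PIFtide (10 nM) and 100 nM FAM-crosstide at 40 μM ATP, in Tris pH 7.2 buffer, for 30 min at 25 °C. Crosstide phosphorylation was read by IMAP fluorescence polarization (ΔmP) and fitted with a 4-parameter curve.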

[1] = test system: phospho-akt (Thr308) in PC-3 cells; assay: Inhibition of phospho-akt (Thr308) in PC-3 cells, MSD phospho-akt 308 ELISA kit; assay type: cell-based; details: Homo sapiens, 2 hours, no serum, read-out: EC50
In short: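 Electrochemiluminescent MSD ELISA of Thr308-phosphorylated Akt after a 2 h serum-free compound exposure of PC-3 cells (15,000/well, plated overnight). Controls: DMSO (high), 5 μM wortmannin (low). Lysate binding overnight at 4 °C; detection antibody 1 h at room temperature.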

[2] = inhibition of P308 Akt in PC-3 cells using MSD
[3] = inhibition of phospo-PDK1 in vitro
[4] = inhibition of P308 Akt in PC-3 cells, MSD
[5] = PC-3, 2 h, inhibition of P308 Akt in PC-3 cells, MSD

Chain of PDK1 (O15530 51-359): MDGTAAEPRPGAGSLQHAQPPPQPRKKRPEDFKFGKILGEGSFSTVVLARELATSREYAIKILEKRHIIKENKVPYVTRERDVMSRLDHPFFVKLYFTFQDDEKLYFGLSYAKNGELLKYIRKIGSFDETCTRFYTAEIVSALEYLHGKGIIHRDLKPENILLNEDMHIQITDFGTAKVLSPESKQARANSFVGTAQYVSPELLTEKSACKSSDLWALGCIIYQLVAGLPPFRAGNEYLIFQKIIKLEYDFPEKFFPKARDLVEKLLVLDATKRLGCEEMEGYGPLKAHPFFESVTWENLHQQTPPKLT

| Structure (SMILES) | IC50 (PDK1; inhibition of PDK1 in vitro) | EC50 [1, 2] | IC50 (PDK1; [3]) | EC50 [1, 4] | also measured |
| --- | --- | --- | --- | --- | --- |
| C[C@H](NC(=O)c1nc(C#N)cnc1NCc1ccc(-c2cnc(N)c(N3CCC[C@H](N)C3)n2)cc1)c1ccc(F)c(F)c1 [Example 198] | < 100 nM | < 1000 nM |  |  |  |
| CCc1nc(C)c(/C=C2\C(=O)Nc3cc(/C=C/CNc4ncccc4C(=O)NCc4ccc(F)c(F)c4)ccc32)[nH]1 [Example 15.11, N-(3,4-Difluoro-benzyl)-2-((E)-3-{3-[1-(2-ethyl-5-methyl-3H-imidazol-4-yl)-meth-(Z)-ylidene]-2-oxo-2,3-dihydro-1H-indol-6-yl}-allylamino)-nicotinamide] |  |  | < 100 nM | < 1000 nM |  |
| Nc1ncnc2ccc(-c3csc(CNc4ncccc4C(=O)NCc4ccc(F)c(F)c4)c3)cc12 [Ex. 6.14, 2-({[4-(4-aminoquinazolin-6-yl)thiophen-2-yl]methyl}amino)-N-(3,4-difluoro-benzyl) pyridine-3-carboxamide] |  |  | < 100 nM | 1000 to 10000 nM |  |
| CCCNS(=O)(=O)c1cnc(NCc2ccc(-c3ccc4ncnc(N)c4c3)s2)c(C(=O)NC)c1 [Example 8.6.11, 2-(((5-(4-aminoquinazolin-6-yl)thiophen-2-yl)methyl)amino)-N-methyl-5-(N-propylsulfamoyl) nicotinamide] |  |  | > 5000 nM | > 10000 nM |  |
| N#Cc1ccc(NC(=O)c2cccnc2NCc2ccc(-c3ccc4ncnc(N)c4c3)s2)cc1 [Example 3.33, 2-({[5-(4-aminoquinazolin-6-yl)thiophen-2-yl]methyl}amino)-N-(4-cyanophenyl)pyridine-3-carboxamide (TFA salt)] |  |  | 100 to 1000 nM |  | EC50 [1, 5]: > 10000 nM |
| C[C@H](NC(=O)c1cc(F)cnc1NCc1ccc(-c2cc3c(N)ncnc3cn2)s1)c1ccc(F)c(F)c1 [Example 7.15, 2-({[5-(4-aminopyrido[3,4-d]pyrimidin-6-yl)thiophen-2-yl]methyl}amino)-N-[(1S)-1-(3,4-difluorophenyl)ethyl]-5-fluoropyridine-3-carboxamide] |  |  | 100 to 1000 nM | 1000 to 10000 nM |  |
| Nc1ncc(-c2ccc(CNc3ncc(C(F)(F)F)cc3C(=O)Nc3ccc(F)cc3)cc2)nc1-c1cccc(O)c1 [Example 236, 2-{4-[5-Amino-6-(3-hydroxy-phenyl)-pyrazin-2-yl]-benzylamino}-N-(4-fluoro-phenyl)-5-trifluoromethyl-nicotinamide] | < 100 nM | 1000 to 10000 nM |  |  |  |
| Nc1ncnc2ccc(-c3ccc(CNc4ncccc4C(=O)NCc4cccc(Cl)c4)s3)cc12 [Example 3.27, 2-({[5-(4-aminoquinazolin-6-yl)thiophen-2-yl]methyl}amino)-N-(3-chlorobenzyl) pyridine-3-carboxamide (TFA salt)] |  |  | 100 to 1000 nM |  | EC50 [1, 5]: > 10000 nM |
| C[C@H](NC(=O)c1cccnc1N[C@@H](COc1ccc([N+](=O)[O-])c(N)c1)c1cccc(Cl)c1)c1ccc(F)c(F)c1 [Example 16.7, 2-((R)-2-(3-amino-4-nitrophenoxy)-1-(3-chlorophenyl)ethylamino)-N-((S)-1-(3,4-difluorophenyl)ethyl)nicotinamide] |  |  | > 5000 nM | > 10000 nM |  |
| CCCNC(=O)c1cccnc1NCc1cccc(-c2c[nH]c3ncccc23)c1 [Example 1.9, N-propyl-2-{[3-(1H-pyrrolo[2,3-b]pyridin-3-yl)benzyl]amino}pyridine-3-carboxamide] |  |  | > 5000 nM | 1000 to 10000 nM |  |
| NCCNS(=O)(=O)c1cnc(NCc2ccc(-c3ccc4ncnc(N)c4c3)s2)c(C(=O)NCc2ccc(F)c(F)c2)c1 [Example 8.6.13, 5-(N-(2-aminoethyl)sulfamoyl)-2-(((5-(4-aminoquinazolin-6-yl)thiophen-2-yl)methyl)amino)-N-(3,4-difluorobenzyl) nicotinamide] |  |  | 1000 to 5000 nM | > 10000 nM |  |
| CC(C)c1cnc(NCc2ccc(-c3ccc4ncnc(N)c4c3)s2)c(C(=O)NCc2ccc(F)c(F)c2)n1 [Ex. 10.4, 3-({[5-(4-aminoquinazolin-6-yl)thiophen-2-yl]methyl}amino)-N-(3,4-difluorobenzyl)-6-(propan-2-yl)pyrazine-2-carboxamide] |  |  | 100 to 1000 nM | > 10000 nM |  |
| Cn1cc(C(=O)NCc2ccc(F)c(F)c2)c(NCc2ccc(-c3ccc4ncnc(N)c4c3)s2)n1 [Ex. 11.1] |  |  | < 100 nM | 1000 to 10000 nM |  |
| Cc1nc[nH]c1/C=C1\C(=O)Nc2cc(/C=C/CNc3ncccc3C(=O)NCc3ccc(F)c(F)c3)ccc21 [Example 15.7, N-(3,4-Difluoro-benzyl)-2-((E)-3-{3-[1-(5-methyl-3H-imidazol-4-yl)-meth-(Z)-ylidene]-2-oxo-2,3-dihydro-1H-indol-6-yl}-allylamino)-nicotinamide] |  |  | < 100 nM | < 1000 nM |  |
| Cn1cnc2cnc3ccc(-c4ccc(CNc5ncccc5C(=O)NCc5ccc(F)c(F)c5)s4)cc3c21 [Example 2.24] |  |  | < 100 nM | < 1000 nM |  |
| Nc1ncnc2ccc(-c3ccc(CNc4nccc5c4C(=O)N(Cc4ccc(F)c(F)c4)C5)s3)cc12 [Ex. 7.19, 4-({[5-(4-aminoquinazolin-6-yl)thiophen-2-yl]methyl}amino)-2-(3,4-difluorobenzyl)-1,2-dihydro-3H-pyrrole[3,4-c]pyridin-3-one] |  |  | 100 to 1000 nM | 1000 to 10000 nM |  |
| O=C1Nc2cc(/C=C/CNc3ncccc3C(=O)NCc3cncc(F)c3)ccc2/C1=C/c1cnc[nH]1 [Example 15.15, 2-((E)-3-((Z)-3-((1H-imidazol-5-yl)methylene)-2-oxoindolin-6-yl)allylamino)-N-((5-fluoropyridin-3-yl)methyl) nicotinamide] |  |  | < 100 nM | < 1000 nM |  |
| CNS(=O)(=O)c1cnc(NCc2ccc(-c3ccc4ncnc(N)c4c3)s2)c(C(=O)N[C@@H](C)c2ccc(F)c(F)c2)c1 [Example 8.7.4, 2-({[5-(4-aminoquinazolin-6-yl)thiophen-2-yl]methyl}amino)-N-[(1S)-1-(3,4-difluorophenyl)ethyl]-5-(methylsulfamoyl) pyridine-3-carboxamide] |  |  | < 100 nM | < 1000 nM |  |
| C[C@H](NC(=O)c1nc(C#N)cnc1NCC1CCC(c2cn(C)c3ncnc(N)c23)CC1)c1ccc(F)c(F)c1 (some centres unmarked) [Example 339] | 100 to 1000 nM |  |  |  | EC50 ([1]; PC-3, 2 h, inhibition of P308 Akt in PC-3 cells using MSD): > 10000 nM |

The next lines start with results.

| IC50 (PDK1; inhibition of PDK1 in vitro) | EC50 [1, 2] | IC50 (PDK1; [3]) | EC50 [1, 4] | Structure (SMILES) | also measured |
| --- | --- | --- | --- | --- | --- |
| < 100 nM | > 10000 nM |  |  | C[C@H](NC(=O)c1cc(C#N)cnc1NCc1ccc(-c2cnc(N)c(C(=O)O)n2)cc1)c1ccc(F)cc1 [Example 207, (S)-3-amino-6-(4-((5-cyano-3-(1-(4-fluorophenyl)ethylcarbamoyl)pyridin-2-ylamino)methyl)phenyl)-pyrazine-2-carboxylic acid] |  |
|  |  | < 100 nM | < 1000 nM | C[C@H](NC(=O)c1nc(C#N)cnc1NCc1ccc(-c2cnc3[nH]nc(NC(=O)c4ccccc4)c3c2)cc1)c1ccc(F)c(F)c1 [Example 37, (S)-3-(4-(3-benzamido-1H-pyrazolo[3,4-b]pyridin-5-yl)benzylamino)-6-cyano-N-(1-(3,4-difluorophenyl)ethyl)pyrazine-2-carboxamide] |  |
| < 100 nM | < 1000 nM |  |  | C[C@H](NC(=O)c1cc(C#N)cnc1NCc1ccc(-c2cnc3[nH]nc(C#CCN(C)C)c3c2)cc1)c1ccc(F)cc1 [Example 146, (S)-5-cyano-2-(4-(3-(3-(dimethylamino)prop-1-ynyl)-1H-pyrazolo[3,4-b]pyridin-5-yl)benzyl-amino)-N-(1-(4-fluorophenyl)ethyl) nicotinamide] |  |
| < 100 nM | < 1000 nM |  |  | C[C@H](NC(=O)c1nc(C#N)cnc1NCc1ccc(-c2cnc(N)c(-c3cccc(N)c3)n2)cc1)c1ccc(F)c(F)c1 [Example 238, 3-{4-[5-Amino-6-(3-amino-phenyl)-pyrazin-2-yl]-benzylamino}-6-cyano-pyrazine-2-carboxylic acid [(S)-1-(3,4-difluoro-phenyl)-ethyl]-amide] |  |
| < 100 nM | < 1000 nM |  |  | C[C@H](NC(=O)c1cc(C#N)cnc1NCc1ccc(-c2cnc(N)c(F)c2)cc1)c1ccc(F)cc1 [Example 110, (S)-2-(4-(6-amino-5-fluoropyridin-3-yl)benzylamino)-5-cyano-N-(1-(4-fluorophenyl)ethyl)nicotinamide] |  |
| < 100 nM | < 1000 nM |  |  | C[C@H](NC(=O)c1cc(C#N)cnc1NCc1ccc(-c2cnc3[nH]nc(N)c3n2)cc1)c1ccc(F)cc1 [Example 183, 2-[4-(3-Amino-1H-pyrazolo [3,4-b]pyrazin-5-yl)-benzylamino]-5-cyano-N-[(S)-1-(4-fluoro-phenyl)-ethyl]-nicotinamide] |  |
| < 100 nM | < 1000 nM |  |  | N#Cc1cnc(NCc2ccc(-c3cnc4[nH]c(=O)[nH]c4c3)cc2)c(C(=O)NCc2ccc(F)c(F)c2)c1 [Example 356, 5-cyano-N-(3,4-difluorobenzyl)-2-(4-(2-oxo-2,3-dihydro-1H-imidazo[4,5-b]pyridin-6-yl)benzylamino)nicotinamide] |  |
| < 100 nM | 1000 to 10000 nM |  |  | CNc1ccc(-c2ccc(CNc3ncc(C#N)cc3C(=O)N[C@@H](C)c3ccc(F)cc3)cc2)cn1 [Example 141] |  |
| < 100 nM | < 1000 nM |  |  | C[C@H](NC(=O)c1nc(C#N)cnc1NCc1ccc(-c2cnc3[nH]ncc3c2)cc1)c1ccc(F)c(F)c1 [Example 390, 6-Cyano-3-[4-(1H-pyrazolo [3,4-b]pyridin-5-yl)-benzylamino]-pyrazine-2-carboxylic acid [(S)-1-(3,4-difluoro-phenyl)-ethyl]-amide] |  |
